What was measured:
[1] = Liquid, Ebulliometric method (Recirculating still)
[2] = refractive index (Na D-line) (dimensionless); conditions: 298.15 K; 101.33 kPa; Liquid; Standard Abbe refractometry

CCOC(C)(C)C [2-ethoxy-2-methylpropane]
[1]
Conditions | vapor or sublimation pressure [kPa]
312.51 K | 30.76
318.88 K | 39.54
326.24 K | 52.05
331.11 K | 62.01
333.15 K | 66.52
335.04 K | 71.06
339.18 K | 81.64
342.53 K | 91.06
343.15 K | 92.96
345.9 K | 101.41

Conditions | refractive index
[2] | 1.373

CCSCC [3-thiapentane]
[1]
Conditions | vapor or sublimation pressure [kPa]
333.15 K | 34.97
343.15 K | 50.14
353.15 K | 70.15

Conditions | refractive index
[2] | 1.44

C1CCCCC1 [cyclohexane]
[1]
Conditions | vapor or sublimation pressure [kPa]
318.47 K | 30.51
326.06 K | 40.65
331.63 K | 49.56
337.52 K | 60.6
342.21 K | 70.8
343.15 K | 72.66
346.25 K | 80.64
350.08 K | 90.89
353.15 K | 99.41
353.32 K | 100.38

Conditions | refractive index
[2] | 1.4235

Cc1ccccc1 [toluene]
Conditions | refractive index
[2] | 1.4939
